Consider 3 compounds from ChEMBL document CHEMBL1141488, “Modifying the glycosidic linkage in digitoxin analogs provides selective cytotoxins” (Bioorg Med Chem Lett, 2008).

In one assay the test system is HT-29. Kind of assay: Cytotoxicity against human HT29 cells. The assay is classed as functional, cell-based.
The test system of a further assay is NCI/ADR-RES. Kind of assay: Cytotoxicity against human NCI/ADR-RES cells. The assay is classed as functional, cell-based.

Each structure is given as a SMILES string. pIC50: −log10 of the molar value.

Broadly, the pIC50 is the negative decadic logarithm of the IC50, by convention in mol/L. Lower therefore signals a large IC50. On to `C[C@]12CC[C@H](N(OCc3ccccc3)OC3OC[C@H](O)[C@@H](O)[C@@H]3O)C[C@H]1CC[C@@H]1[C@@H]2CC[C@]2(C)[C@@H](C3=CC(=O)OC3)CC[C@]12O` (stereo partly drawn), for which the pIC50 with HT-29 is under 6.00. `CC(C)ON(OC1OC[C@H](O)[C@@H](O)[C@@H]1O)[C@H]1CC[C@@]2(C)[C@H](CC[C@@H]3[C@@H]2CC[C@]2(C)[C@@H](C4=CC(=O)OC4)CC[C@]32O)C1` (stereo partly drawn) gave a pIC50 in the assay with NCI/ADR-RES of 6.92. In the assay on NCI/ADR-RES, `CC(C)ON(OC1OC[C@H](O)[C@H](O)[C@@H]1O)[C@H]1CC[C@@]2(C)[C@H](CC[C@@H]3[C@@H]2CC[C@]2(C)[C@@H](C4=CC(=O)OC4)CC[C@]32O)C1` (stereo partly drawn) had a pIC50 of 6.96.
